How the values were obtained:
Settings in all cases: 72 h
[1] = test system: Caco-2; test: cell viability relative to DMSO; higher = less toxic
[2] = test system: Calu-3; test: as above
[3] = test system: HepG2; test: as above
[4] = test system: U2OS; test: as above
[5] = test system: Vero E6; test: as above
[6] = test system: Caco-2; test: relative viability EC50 (midpoint between 100% and the lowest measured viability); higher = less toxic
[7] = test system: Calu-3; test: as above
[8] = test system: U2OS; test: as above
[9] = test system: Vero E6; test: as above
[10] = test system: Caco-2; test: drug sensitivity score (DSS) for viability; higher = more toxic; extreme values may be limits of the assay
[11] = test system: Calu-3; test: as above
[12] = test system: HepG2; test: as above
[13] = test system: U2OS; test: as above
[14] = test system: Vero E6; test: as above
[15] = test system: HepG2; test: relative viability EC50 (midpoint between 100% and the lowest measured viability); higher = less toxic

SMILES | cell viability ([1]; 1 nM) | cell viability ([1]; 10 nM) | cell viability ([1]; 100 nM) | cell viability ([1]; 1000 nM) | cell viability ([1]; 10000 nM) | cell viability ([2]; 1 nM) | cell viability ([2]; 10 nM) | cell viability ([2]; 100 nM) | cell viability ([2]; 1000 nM) | cell viability ([2]; 10000 nM) | cell viability ([3]; 1 nM) | cell viability ([3]; 10 nM) | cell viability ([3]; 100 nM) | cell viability ([3]; 1000 nM) | cell viability ([3]; 10000 nM) | cell viability ([4]; 1 nM) | cell viability ([4]; 10 nM) | cell viability ([4]; 100 nM) | cell viability ([4]; 1000 nM) | cell viability ([4]; 10000 nM) | cell viability ([5]; 1 nM) | cell viability ([5]; 10 nM) | cell viability ([5]; 100 nM) | cell viability ([5]; 1000 nM) | cell viability ([5]; 10000 nM) | relative viability EC50 [6] | relative viability EC50 [7] | relative viability EC50 [8] | relative viability EC50 [9] | drug sensitivity score [10] | drug sensitivity score [11] | drug sensitivity score [12] | drug sensitivity score [13] | drug sensitivity score [14] | relative viability EC50 [15]
C[C@@]12CCc3occc3[C@H]1CC[C@@]13C[C@@H](CC[C@H]12)[C@@](O)(CO)C3 [cafestol] | 119% | 100% | 104% | 103% | 79.6% | 104% | 104% | 107% | 112% | 98.2% | 83.8% | 96.4% | 78.4% | 104% | 69.3% | 101% | 103% | 94.2% | 98.2% | 94.4% | 98.7% | 97.7% | 102% | 98% | 104% | > 10 µM | > 10 µM | > 10 µM | > 10 µM | 0.5 | 0 | 1.1 | 0 | 0 | 
O=C(O)CCCCN(CCc1ccccc1OCc1ccc(CCc2ccccc2)cc1)Cc1ccc(C(=O)O)cc1 [cinaciguat] | 110% | 110% | 104% | 86% | 104% |  |  |  |  |  | 106% | 110% | 98.9% | 109% | 105% |  |  |  |  |  |  |  |  |  |  | > 10 µM |  |  |  | 0 |  | 0 |  |  | > 10 µM
NC(=S)N/N=C/c1ncccc1N [triapine] | 97.2% | 98.7% | 95.3% | 92.1% | 68.6% | 106% | 94.1% | 101% | 101% | 70.5% | 103% | 97.7% | 119% | 93% | 30.6% | 96.8% | 99.6% | 95.8% | 102% | 72.8% | 97% | 98.3% | 98.1% | 92.3% | 50.3% |  |  |  |  | 2.4 | 1.2 | 5 | 1 | 3.9 | 2.34 µM
C#Cc1cccc(Nc2ncnc3cc4c(cc23)OCCOCCOCCO4)c1 [icotinib] | 104% | 100% | 98.5% | 87.4% | 90.7% | 93.8% | 104% | 90.2% | 66.1% | 50.8% | 86.4% | 103% | 87.7% | 102% | 99.4% | 96.4% | 95.6% | 98.1% | 93.7% | 96.6% | 91.5% | 100% | 92% | 81.8% | 66.9% | > 10 µM |  | > 10 µM |  | 0.8 | 7.2 | 0 | 0 | 3.5 | > 10 µM
CS(=O)(=O)CCNCc1ccc(-c2ccc3ncnc(Nc4ccc(OCc5cccc(F)c5)c(Cl)c4)c3c2)o1 [lapatinib] | 100% | 93.7% | 90.1% | 77.3% | 62.8% | 102% | 89.6% | 74.2% | 35.8% | 24.5% | 98% | 107% | 104% | 112% | 89.1% | 98.4% | 93.6% | 94% | 92.3% | 74.9% | 96.9% | 100% | 92.4% | 74.6% | 51.5% |  | 0.176 µM |  |  | 4.8 | 15.1 | 0 | 1.4 | 5.5 | > 10 µM
N=C(Nc1ccc(I)cc1)NC1C2CC3CC(C2)CC1C3 (stereo not drawn) [IPAG] | 103% | 98.4% | 97.9% | 88.3% | 16.2% | 106% | 103% | 98.2% | 101% | 77.2% | 97.7% | 96% | 87.6% | 84.8% | 17% | 103% | 102% | 105% | 96.4% | 93.8% | 95.7% | 102% | 94.5% | 94.2% | 63.8% | 2.05 µM | > 10 µM | > 10 µM |  | 6.6 | 0.7 | 7.1 | 0 | 2.7 | 1.81 µM
COc1cc(OC)c2c(=O)[nH]c(-c3cc(C)c(OCCO)c(C)c3)nc2c1 [apabetalone] | 109% | 96.9% | 102% | 101% | 87.6% | 98.5% | 90.2% | 90.2% | 99.4% | 102% | 101% | 99.9% | 91.3% | 93.2% | 79.9% | 102% | 102% | 104% | 96.8% | 89.2% | 99.8% | 98.4% | 105% | 93% | 63.8% | > 10 µM | > 10 µM | > 10 µM |  | 0 | 0 | 0.9 | 0 | 2.9 | > 10 µM
CCOc1ccc2nc3cc(N)ccc3c(N)c2c1 [ethacridine-lactate-monohydrate] | 97.4% | 104% | 101% | 110% | 95.4% |  |  |  |  |  | 115% | 131% | 124% | 96.6% | 25.4% | 106% | 105% | 104% | 105% | 55.6% | 102% | 101% | 100% | 102% | 97.2% | > 10 µM |  |  | > 10 µM | 0 |  | 4.6 | 1.9 | 0 | 2.82 µM
CCCCCCCCCCCCCCCC(=O)OC[C@H](O)[C@H]1OC(=O)C(O)=C1O [L-ascorbyl-6-palmitate] | 95.2% | 100% | 96.1% | 99.7% | 95% | 98.9% | 104% | 94.5% | 108% | 113% | 101% | 93.2% | 92.6% | 94.4% | 97.7% | 100% | 103% | 97.5% | 102% | 97.9% |  |  |  |  |  | > 10 µM | > 10 µM | > 10 µM |  | 0 | 0 | 0 | 0 |  | > 10 µM
N=C(N)c1ccc(/C=C/c2ccc(C(=N)N)cc2O)cc1 [hydroxystilbamidine] | 97.7% | 99.2% | 103% | 104% | 93.7% | 110% | 107% | 101% | 102% | 97.3% | 108% | 96.6% | 93.1% | 95.5% | 56.2% | 98% | 95.6% | 96.2% | 98.6% | 106% | 96.7% | 100% | 101% | 97.5% | 89.4% | > 10 µM | > 10 µM | > 10 µM | > 10 µM | 0 | 0 | 3 | 0 | 0 | 
Nc1ccn([C@@H]2O[C@H](CO)[C@@H](O)[C@@H]2O)c(=O)n1 [cytarabine] | 106% | 97% | 90.7% | 85.9% | 80.6% | 99.6% | 93.8% | 91.9% | 88.6% | 70.9% | 95.2% | 100% | 66.4% | 42.1% | 38.7% | 103% | 94.3% | 96.3% | 96.9% | 72.8% | 95.8% | 96.5% | 93.5% | 95.1% | 62.1% | > 10 µM |  |  |  | 2.1 | 2.4 | 15.2 | 1.6 | 2.7 | 0.09 µM
O=C(c1ccc(OCCCc2c[nH]cn2)cc1)C1CC1 [ciproxifan] | 101% | 97.1% | 91.8% | 94.2% | 88.4% | 93.4% | 101% | 99.9% | 88.2% | 93.1% | 106% | 107% | 99.8% | 74.3% | 88.6% | 96.1% | 105% | 96.8% | 95.8% | 97.5% | 101% | 102% | 101% | 101% | 94.2% | > 10 µM | > 10 µM | > 10 µM | > 10 µM | 0 | 0.5 | 4.1 | 0 | 0 | 
NS(=O)(=O)c1cc(-c2nnn[nH]2)c(NCc2cccs2)cc1Cl [azosemide] | 99.4% | 111% | 86.5% | 92.4% | 92.1% |  |  |  |  |  | 94.5% | 103% | 103% | 95.7% | 89.6% |  |  |  |  |  | 103% | 108% | 104% | 106% | 97.1% | > 10 µM |  |  | > 10 µM | 1.6 |  | 0 |  | 0 | > 10 µM
Cn1cncc1[C@@](N)(c1ccc(Cl)cc1)c1ccc2c(c1)c(-c1cccc(Cl)c1)cc(=O)n2C [tipifarnib] | 86.5% | 90.7% | 80.3% | 73.1% | 59.9% | 88.7% | 92.1% | 81.6% | 63.2% | 54.5% | 98.4% | 95.2% | 74.3% | 63.5% | 23.3% | 95.3% | 96.7% | 88.9% | 70.9% | 53.9% | 103% | 94.2% | 95.1% | 82.7% | 76.9% |  |  |  | > 10 µM | 7.8 | 8.9 | 10.6 | 6.4 | 2.5 | 0.532 µM
CC1(C)S[C@@H]2[C@H](NC(=O)[C@H](C(=O)O)c3ccsc3)C(=O)N2[C@H]1C(=O)O [ticarcillin] | 103% | 97.6% | 91.1% | 102% | 93.6% | 91.5% | 106% | 109% | 97.7% | 103% | 106% | 97.3% | 87.7% | 102% | 88.8% | 101% | 100% | 98.6% | 98.1% | 101% |  |  |  |  |  | > 10 µM | > 10 µM | > 10 µM |  | 0 | 0 | 0 | 0 |  | > 10 µM
